Measurements taken from patent US6492387B2, “Isoindolyl and isoquinolinyl aroyl pyrrole compounds” (Ortho-McNeil Pharamaceutical, Inc., priority 2000, dated 2002).
Structures can show the parent of a compound that is named as a salt.

melting point: 231 to 233 °C
SMILES: COc1cc2c(cc1OC)CN(CC(=O)c1cc(C(=O)c3ccc(SC)cc3)n(C)c1)CC2 (as salt: hydrochloride) [Compound 4, 2-(3,4-dihydro-6,7-dimethoxy-2(1H)-isoquinolinyl)-1-[1-methyl-5-[4-(methylthio)benzoyl]-1H-pyrrol-3-yl]-ethanone]
